The record followed here is patent US6495331B1, “Regulation of cytokine production in a hematopoietic cell” (National Jewish Center for Immunology and Respiratory …, priority 1996, dated 2002).

Assay type in all cases: cell-based, mouse
One experiment relates to JNK. The experiment in a line: JNK activity (GST-c-Jun kinase assay) in OVA-stimulated OVA-IgE-sensitized MC/9 cells.
Experiment [1] concerns ERK2. The experiment in a line: ERK2 in vitro kinase assay (32P incorporation into myelin basic protein) in OVA-stimulated sensitized MC/9 cells.
Method: MC/9 cells sensitized with OVA-IgE (1×10^6/ml) were incubated with 0.1% DMSO (control and 0 nM) or 3-30 μM PD 098059 for 1 h and the reaction was stopped by centrifugation at 5 min after the stimulation. The cells were then incubated with 10 μg/ml OVA or PBS (control) for 5 min. Kinase activity of ERK2 was measured as ^32P incorporation into myelin basic protein (MBP).
In vitro kinase assay of ERK2 was carried out as described above with some minor modifications. 3×10^6 cells were lysed by vigorous mixing in 0.4 ml of lysis buffer (20 mM Tris-HCl (pH 8.0), 1% Triton X-100, 10% glycerol, 137 mM NaCl, 1.5 mM MgCl2, 1 mM EGTA, 50 mM NaF, 1 mM Na3VO4, 1 mM PMSF, 5 μg/ml leupeptin, and 10 μg/ml aprotinin). The lysate was incubated with anti-ERK2 antibody (2 μg/ml) for 2 hrs at 4° C. Recombinant protein G sepharose 4B was added to the lysate and incubated for an additional 1 hr at 4° C. The immune complexes were washed three times with lysis buffer, and once with kinase buffer (30 mM Tris-HCl (pH 8.0), 20 mM MgCl2, 2 mM MnCl2). For the in vitro kinase assay, the immune complex suspension was incubated with 9 μg myelin basic protein (MBP) and 10 μCi of [γ-^32P] ATP in kinase buffer in a final volume of 30 μl for 30 min at 30° C. […] The bands corresponding to MBP were cut out of the gel, and radioactivity was determined by liquid scintillation counting.
Another experiment relates to p38 MAP kinase. The experiment in a line: p38 MAP kinase immunoprecipitation kinase assay (ATF-2 substrate) in OVA-stimulated sensitized MC/9 cells. As for the experimental part:
MC/9 cells sensitized with OVA-IgE were incubated in the presence of PBS (O min) or 10 μg/ml OVA for 1, 5, 15, 30, or 60 min. To immunoprecipitate p38 kinase, 3×10^6 cells were lysed by vigorous mixing in 0.4 ml of extraction buffer (1% Triton X-100, 10 mM Tris-HCl (pH 7.4), 5 mM EDTA, 50 mM NaCl, 50 mM […], 0.1% bovine serum albumin (BSA), 20 μg/ml aprotinin, 1 mM PMSF, and 2 mM Na3VO4). The lysate was incubated with the rabbit anti-serum raised against the COOH-terminal peptide sequence of p38 (1:400 dilution) for 2 h at 4° C. Recombinant protein G sepharose 4 B was added to the lysate and incubated for an additional 1 h at 4° C. The immunoprecipitates were washed once with extraction buffer, twice with PAN buffer (10 mM piperazine-N, N′-bis (2-ethanesulfonic acid) (PIPES, pH 7.0), 100 mM NaCl, 20 μg/ml aprotinin). […] The kinase activity was quantified with a PhosphorImager (Molecular Dynamics, Sunnyvale, Calif.).
MC/9 cells sensitized with OVA-IgE (3×10^6) were preincubated with either 1-1000 nM wortmannin or a control (0.01% DMSO) for 15 min and stimulated for 5 min by addition of 10 μg/ml OVA. […] The data are expressed as the percentage of p38 activity detected in the presence of 10 μg/ml OVA and 0.01% DMSO (*, p<0.05).

The subject of a further experiment is TNF-α production. Put plainly: TNF-α production by OVA-stimulated sensitized MC/9 cells, ELISA. To be noted: then 10 μg/ml OVA 3 h.
In a further experiment the test system is human TNF-α promoter. The experiment in a line: TNF-α promoter luciferase reporter pTNF(-1311)Luc in MC/9 cells stimulated by FcεRI aggregation. As for the experimental part: The pXP1 plasmid containing full length of the human TNF-α promoter just upstream of the luciferase gene, designated pTNF(-1311)Luc, was provided by Dr. James S. Economou (Division of Surgical Oncology, UCLA School of Medicine, Los Angels, Calif.). pTNF(-1311)Luc was transfected into MC/9 by the DEAE-dextran method. 2×10^6 cells were washed once with 1×TBS (25 mM Tris, 137 mM NaCl, 5 mM KCl, 0.5 mM Na2HPO4, 0.49 MM MgCl2, 0.68 mM CaCl21 pH 7.5). Cells were suspended with 0.4 ml of 500 μg DEAE-dextran/4 μgDNA mixture and incubated at room temperature for 30 min. After washed with 1×TBS, cells were suspended with 10 ml of culture medium and plated on culture dish. […]
Luciferase activity was measured to measure TNF-α promoter activity. […] 30 μl of the lysate was mixed with the same volume of Luciferase Assay Substrate containing beetle luciferin as a substrate (Promega, Madison Wis.), and chemiluminescence was measured for 30 sec as relative light units by a luminometer (Monolight 2010, Analytical Luminescence Laboratory, San Diego, Calif.).
MC/9 cells transiently transfected by pTNF(-1311)Luc were passively sensitized with OVA-IgE, and incubated for an additional 15 h with 10 μg/ml OVA or PBS in the presence of 0.01% DMSO or 100 nM wortmannin. […] Luciferase activity in cell lysates was measured as relative light units (RLU) and standardized by control RLU (mean±S.D., N=4, p<0.01). […]

The subject of experiment [2] is ERK2. Put plainly: ERK2 phosphorylation by anti-ERK2 immunoblot in MC/9 cells. To be noted: PD 098059, MC/9 cells. As for the experimental part: After different treatments, 1×10^6 cells were lysed in buffer (150 mM NaCl, 1% Nonidet P-40, 0.5% deoxycholic acid sodium salt, 0.1% SDS, 50 mM Tris (pH 7.6), 10 μg/ml aprotinin, […] leupeptin, 1 mM phenylmethylsulfonyl fluoride). Samples were electrophoresed on SDS-10% polyacrylamide gels and proteins were transferred to nitrocellulose membranes. Membranes were incubated overnight in blocking buffer containing 1% BSA at 4° C. The monoclonal anti-ERK2 antibody (200 μg/69 μl, Upstate Biotechnology) was added to the blocking buffer (1:1000), and blots were incubated for an additional 1 h at room temperature. The blots were washed in TBST (25 mM Tris (pH 8.0), 125 mM NaCl, 0.025% Tween 20), and specific reactive proteins were detected by an enhanced chemiluminescence method, employing a sheep anti-mouse Ig antibody linked to horseradish peroxidase (Amersham Corp.).
1×10^6 cells were lysed in buffer (150 mM NaCl, 1% NP40, 0.5% deoxycholic acid sodium salt, 0.1% SDS, 50 mM Tris (pH 7.6), 10 μg/ml aprotinin, […] leupeptin, 1 mM PMSF). […] The blots were washed in TBST (25 mM Tris, pH 8.0, […] NaCl, 0.025% Tween 20) and specific reactive proteins were detected by an enhanced chemiluminescence method, employing a sheep anti-mouse Ig antibody linked to horseradish peroxidase (Amersham, Arlington Heights, Ill.).
A general note: Immunoblotting shows a protein as a band on a membrane.

Method for JNK: MC/9 cells (5×10^6/ml) were cultured with 500 ng/ml anti-OVA IgE for 2 h. The cells were washed with medium three times and cultured with fresh medium for an additional 2 h. OVA dissolved in PBS or anti-IgE was added for the stimulation, and PBS was used as a control vehicle.
The activity of JNK was measured by monitoring the activity of a Glutathione S-transferase-c-Jun-(1-79) fusion protein. Cells (3×10^6) were lysed in a buffer (20 MM Tris-HCl, pH 7.6, 250 mM NaCl, 3 mM EDTA, 3 mM EGTA, 0.5% NP-40, 2 mM Na3VO4, 1 mM dithiothreitol (DTT), 1 mM phenylmethylsulfonyl fluoride (PMSF), 20 μg/ml aprotinin, 5 μg/ml leupeptin). The lysates were mixed with GST-c-Jun-Sepharose beads and rotated at 4° C. for 3 h. The beads were washed twice in lysis buffer and once in kinase assay buffer (20 mM Hepes, pH 7.5, 20 mM β-glycerophosphate, 10 mM MgCl2, 1 mM DTT, 50 mM Na3VO4, 10 mM p-nitrophenyl phosphate). After the final wash, 40 μl of a kinase assay buffer containing 10 μCi of γ-^32P-ATP (ICN Pharmaceuticals, Irvine, Calif.) were added per sample. […] The bands corresponding to GST-c-Jun were cut out of the gel, and radioactivity was determined by liquid scintillation counting. […]
Method for TNF-α production: An ELISA for TNF-α production was performed as follows. Purified rat anti-mouse TNF-α monoclonal antibody was diluted to 2 μg/ml in coating solution (0.1 M NaHCO3, pH 8.2) and 50 μg was added to wells of an ELISA plate (Dynatech Laboratories). […] After washing twice, standards (16 pg/ml −4 ng/ml recombinant mouse TNF-α) and samples were added at 100 μl per well and incubated overnight at 4° C. After washing four times, biotinylated rabbit anti-mouse TNF-α polyclonal antibody (1 μg/ml) was added to wells and incubated at room temperature for 45 min and wells were washed six times. […] ABTS (2,2′-Azino-bis(3-ethylbenzthiazoline-6-sulfonic acid) substrate (30 mg/ml 0.1 M citric acid, pH 4.35) containing 0.03% H2O2 was added at 100 μl per well and color reaction was allowed to develop at room temperature for 30 min. A plate was read at OD 410 nm and analyzed by Mycroplate Manager (Bio Rad, Hercules, Calif.).
MC/9 cells (1×10^6/ml) were incubated with 500 ng/ml mouse monoclonal IgE specific for OVA (OVA-IgE) for 2 h. […] After the incubation, the cell supernatant was harvested and TNF-α production was measured by ELISA.
The effect of wortmannin on TNF-α production in MC/9 cells was also examined. […] TNF-α in the medium was measured by ELISA.
MC/9 cells sensitized with OVA-IgE (1×10^6/ml) were incubated with 0.1% DMSO or 30 μM PD 098059 for 1 h. […] TNF-α in the medium was measured by ELISA.

As for `COc1cccc(-c2cc(=O)c3ccccc3o2)c1N` [PD 098059], in the experiment with JNK (PD 098059, data not shown), the “effect on JNK activation” value is “did not inhibit”. In the experiment with ERK2 [1] (30 μM PD 098059, 1 h, then 10 μg/ml OVA 5 min), the “decrease in OVA-induced ERK2 activity” value turned out to be 65%. The “effect on ERK2 activities” value in the experiment on ERK2 [1] (10-30 μM PD 098059, MC/9 cells) is “significantly inhibited”. Also, the “effect on p38 activation” value in the experiment with p38 MAP kinase (PD 098059, data not shown) is “did not inhibit”. Besides, in the experiment with TNF-α production (30 μM PD 098059, 1 h), the “effect on TNF-α production” value is “did not affect TNF-α production”. Moreover, in the experiment with human TNF-α promoter (30 μM PD 098059, 10 μg/ml OVA 15 h), the “effect on OVA-induced luciferase activity (TNF-α promoter)” value is given as “enhanced OVA-induced luciferase activity”. In addition, in the experiment with ERK2 [2], the “effect on ERK2 phosphorylation induced by aggregation of FcεRI” value is “strongly inhibited”.

`COC[C@H]1OC(=O)c2coc3c2[C@@]1(C)C1=C(C3=O)[C@@H]2CCC(=O)[C@@]2(C)C[C@H]1OC(C)=O` [wortmannin]: in the experiment with JNK (100 nM wortmannin, 15 min preincubation, 10 μg/ml OVA 10 min, MC/9 cells), the “JNK kinase activity, percentage of that observed in the absence of treatment” value was determined as 8%. For the same compound, the “decrease in p38 kinase activities” value in the experiment on p38 MAP kinase (100 nM-1 μM wortmannin, 15 min, then 10 μg/ml OVA 5 min) is 50-60%. Also, in the experiment on TNF-α production (100 nM wortmannin, 15 min), the “decrease in TNF-α production” value amounted to 77%. Further, the “decrease in OVA-induced luciferase activity (TNF-α promoter)” value in the experiment on human TNF-α promoter (100 nM wortmannin, 10 μg/ml OVA 15 h) is given as 40%.
